Measurements taken from US20140249293A1, “Absent and Rare Peptides and Therapeutic Uses Thereof” (Boise State University, priority 2012, published 2014).
Where two headings read alike, the source gives them in different places. Ends that are not written are not given here.

Tests used:
[1] = test system: Normal (non-cancer) human lung fibroblast cells (WI-38); experiment: MTT assay of WI-38 cells; assay type: cell-based; conditions: WI-38 normal fibroblasts, treated 1 hour, MTT 4 hours
Method: Normal (non-cancer) human lung fibroblast cells (WI-38) were also treated with the 9R, 9S1, and 120 peptides. WI-38 cells were treated with the peptides for 1 hour and followed by MTT for 4 hours. Although the treated cells show no decrease in MTT absorbance, this may have been due to the cells being plated at lower concentration, and may not have been actively dividing.

LnCaP cells [2] = assay type: cell-based; conditions: 24 h
From the text: The HCS MITOCHONDRIAL HEALTH KIT™ (available from Invitrogen) includes a dye that is taken up by healthy, actively respiring mitochondria. The uptake of this dye can be visualized with fluorescent confocal microscopy. FIGS. 9A-9C show control LnCaP cells treated only with the vehicle control (i.e., no peptide). The Hoechst dye stained nuclei of cells, whether they were alive or dead (Excitation/Emission maxima—Hoechst 33342: 350/461 nm). FIG. 9A is a panel showing all nuclei stained with Hoechst dye. FIG. 9B is a panel showing healthy mitochondria stained with MitoHealth dye. FIG. 9C is a panel showing the merged images of 9A and 9B. The mitochondrial health dye incorporated into the cells depends on mitochondrial membrane potential (excitation/emission maxima—MitoHealth stain: 550/580 nm). The HCS MITOCHONDRIAL HEALTH KIT™ (Invitrogen) was developed for simultaneous quantitative measurements of two cell health parameters in the same cell: mitotoxicity and cytotoxicity. The MitoHealth stain accumulated in mitochondria in live cells proportional to the mitochondrial membrane potential.
A range of peptide concentrations was applied to the LnCap cells. […] The cells were treated for 24 hrs.
A range of peptide concentrations was used to treat LnCap cells. […] The cells were incubated with peptide for 24 hrs.

LnCaP cells [3] = conditions: for IC50: 48 h
Method: LnCaP cells were treated with peptides 9R, 9S1, 120 (SEQ ID NO: 120) and a vehicle control. LnCaP cells were treated with the peptides for 48 hours, and incubated with MTT for 4 hours. For background level of absorbance, media alone was measured on the plate. […] Several concentrations of peptides were used to determine the IC50 of these peptides.
These cells were treated with an identical concentration (30 μM) of peptoprime peptide 120.

mice = conditions: cited from earlier work
[4] = test system: paclitaxel-resistant LnCap cells; experiment: MTT assay of paclitaxel-resistant LnCap cells (reversal of paclitaxel resistance); assay type: cell-based; conditions: paclitaxel alone, even at 600 μM (data not shown)
Method: The 9R peptide (SEQ ID NO: 200; labeled “9” in FIG. 16) was tested for its ability to reverse paclitaxel (TAXOL™) resistance in paclitaxel-resistant LnCap cells.
Paclitaxel-resistant LnCaP cells were treated with the peptides for 120 hours, and incubated with MTT for 4 hours. The paclitaxel-resistant LnCap cells were resistant to paclitaxel even at 600 μM concentration (data not shown). Referring to FIG. 16, the paclitaxel-resistant LnCap cells were resistant to 9R at the 100 μM level (labeled **). However, the combination of paclitaxel (at little as 30 nM) and 9R (at little as 5 μM) killed the paclitaxel-resistant LnCap cells (labeled ***).

Compound | MTT absorbance [1] | IC50 (LnCaP cells [2]) [µM] | IC50 (LnCaP cells [3]) [µM] | other results
WFMHW [Peptide 120, WFMHW] | no effect |  |  | 
WCMNW [Peptide 9S1, WCMNW] | no decrease | 30 | ~30 | 
AQGV |  |  |  | recuperation after lethal exposure to radiation (mice): shown promise in accelerating the recuperation
OO [peroxide, Hydrogen peroxide, reference compound] |  |  |  | MTT absorbance value compared with control treatment cells (LnCaP cells [3]; LnCaP, treated 48 hours, MTT 4 hours): marked decrease
CC(=O)O[C@H]1C(=O)[C@@]2(C)[C@H]([C@H](OC(=O)c3ccccc3)[C@]3(O)C[C@H](OC(=O)[C@H](O)[C@@H](NC(=O)c4ccccc4)c4ccccc4)C(C)=C1C3(C)C)[C@]1(OC(C)=O)CO[C@@H]1C[C@@H]2O [paclitaxel] |  |  |  | sensitivity of paclitaxel-resistant LnCap cells (MTT) [4]: resistant
RRRRRNWMWC [Peptide 9R, RRRRRNWMWC] | no decrease | 100 | ~50 | 
